Source: US20070249591A1, “Biaryl Amino Acids and Their Use in Dna Binding Oligomers” (Spirogen Limited, priority 2004, published 2007)

System: MS2 DNA sequence
Assay: DNA footprinting study against the MS2 DNA sequence
Format: binding, bacteriophage
Details: cleavage pattern on electrophoresis gel
Description: In order to assess the binding of test compounds to DNA, a footprinting study against the MS2 DNA sequence was carried out. The sequence is as follows:
and is derived from a bacteriophage.
The footprinting technique in the context of DNA allows the determination of binding sites for drugs or biological macromolecules. It relies on the fact that DNA is cleaved relatively non-specifically by free radicals (e.g. hydroxyl radical footprinting) or enzymes (e.g. DNase I footprinting). Thus if DNA is 32p end labelled on one strand (so that it may be observed autoradiographically) and exposed to the cleavage agent for a certain time, then a laddering pattern may be seen when the resulting fragments are separated by gel electrophoresis (separation on the basis of size). If a compound which binds to DNA is added prior to the cleavage agent then this hinders access of the enzyme or radical to the DNA and blocks cleavage at the molecule binding site. Thus if the compound binds discretely then a specific cleavage block should be seen on the gel relative to the DNA not treated with compound, which is termed the ‘footprint’. (see FIG. 1)

In the case of `CCOC(=O)c1csc(-c2ccc(NC(=O)c3csc(-c4ccc(NC(=O)CCCN(C)C)cc4)n3)cc2)n1` [Compound 9, Ethyl 2-[4-({2-[4-(4-dimethylaminobutyrylamino)phenyl]thiazole-4-carbonyl}amino)phenyl]thiazole-4-carboxylate], the coating event is reported as “no clear coating event” and the specific footprinting activity is reported as “no specific footprinting activity”.
